# Source: PubChem BioAssay AID1259411 (Chemical Carcinogenesis Research Information System (CCRIS), 2018)
# Calls of active or inactive are those of the source. No rule for the calls is given here.
# System: rodent carcinogenicity bioassays, tumor incidence
# Test: CCRIS carcinogenicity studies
# Procedure, shortened: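 Archive of carcinogenicity, mutagenicity, tumor promotion and tumor inhibition results drawn from journals, NCI reports and other sources, expert-reviewed; covers 1985-2011 and is no longer updated.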
smiles,measurement,setting,value
O=c1cc(CO)occ1O,carcinogen call,"Species: MOUSE, Strain/Sex: B6C3F1/FEMALE, Route: ORAL, Dose: 0, 1.5, 3% IN DIET FOR 20 MONTHS (STUDY DURATION: 20 MONTHS), Dose: 0, 1.5, 3% IN DIET FOR 20 MONTHS (STUDY DURATION: 20 MONTHS), Tumor Site: Type of Lesion: THYROID: ADENOMA. LIVER: HEPATOMA",active; positive
same,carcinogen call,"Species: MOUSE, Strain/Sex: B6C3F1/MALE, Route: ORAL, Dose: 0, 1.5, 3% IN DIET FOR 20 MONTHS (STUDY DURATION: 20 MONTHS), Dose: 0, 1.5, 3% IN DIET FOR 20 MONTHS (STUDY DURATION: 20 MONTHS), Tumor Site: Type of Lesion: THYROID: ADENOMA",active; positive
same,carcinogen call,"Species: Rat, Strain/Sex: F344/Male (20/experimental group (10 killed at 31 wk & 10 killed at 44 wk); 15/controls), Route: Oral, Dose: Kojic acid at 2.0% in drinking water for 31 wk, recovery for 13 wk, study duration 44 wk, Dose: Kojic acid at 2.0% in drinking water for 31 wk, recovery for 13 wk, study duration 44 wk, Tumor Site: Type of Lesion: Thyroid: 1 adenoma at 44 wk","inactive; negative (however, significantly greater increase in thyroid follicular cell hyp"
COC(=O)C1=CCCN(C)C1,carcinogen call,"Species: MOUSE, Strain/Sex: SWISS/FEMALE, Route: GAVAGE, Dose: 0, 1 MG/D 5 D/WK FOR LIFE (STUDY DURATION: LIFE)",inactive; negative
same,carcinogen call,"Species: MOUSE, Strain/Sex: SWISS/MALE, Route: GAVAGE, Dose: 0, 1 MG/D 5 D/WK FOR LIFE (STUDY DURATION: LIFE), Tumor Site: Type of Lesion: LIVER: HEMANGIOMA, LUNG: ADENOCARCINOMA, STOMACH: SQUAMOUS CELL CARCINOMA, Tumor Site: Type of Lesion: LIVER: HEMANGIOMA, LUNG: ADENOCARCINOMA, STOMACH: SQUAMOUS CELL CARCINOMA",active; positive
Nc1cc(S(=O)(=O)[O-])cc2c1C(=O)/C(=N\Nc1ccc(-c3ccc(N/N=C4\C(=O)c5c(N)cc(S(=O)(=O)[O-])cc5C=C4S(=O)(=O)[O-])c(O)c3)cc1O)C(S(=O)(=O)[O-])=C2.[Cu].[Cu].[Na+].[Na+].[Na+].[Na+],carcinogen call,"Species: MOUSE, Strain/Sex: B6C3F1/FEMALE, Route: ORAL, Dose: 0, 1000, 3000, 10000 PPM IN DIET FOR 103 WK (STUDY DURATION: 106 WK), Dose: 0, 1000, 3000, 10000 PPM IN DIET FOR 103 WK (STUDY DURATION: 106 WK), Tumor Site: Type of Lesion: LIVER: HEPATOCELLULAR ADENOMA, HEPATOCELLULAR CARCINOMA",active; positive
same,carcinogen call,"Species: MOUSE, Strain/Sex: B6C3F1/MALE, Route: ORAL, Dose: 0, 1000, 3000, 10000 PPM IN DIET FOR 103 WK (STUDY DURATION: 106 WK), Dose: 0, 1000, 3000, 10000 PPM IN DIET FOR 103 WK (STUDY DURATION: 106 WK), Tumor Site: Type of Lesion: LIVER: HEPATOCELLULAR ADENOMA, HEPATOCELLULAR CARCINOMA",active; positive
same,carcinogen call,"Species: RAT, Strain/Sex: F344/FEMALE, Route: ORAL, Dose: 0, 1000, 3000, 10000 PPM IN DIET FOR 103 WK (STUDY DURATION: 105 WK), Dose: 0, 1000, 3000, 10000 PPM IN DIET FOR 103 WK (STUDY DURATION: 105 WK)",inactive; negative
same,carcinogen call,"Species: RAT, Strain/Sex: F344/MALE, Route: ORAL, Dose: 0, 1000, 3000, 10000 PPM IN DIET FOR 103 WK (STUDY DURATION: 105 WK), Dose: 0, 1000, 3000, 10000 PPM IN DIET FOR 103 WK (STUDY DURATION: 105 WK), Tumor Site: Type of Lesion: PHARYNX: SQUAMOUS CELL PAPILLOMA OR SQUAMOUS CELL CARCINOMA",active; positive
CO[Si](CCCOCC1CO1)(OC)OC (centres undefined),carcinogen call,"Species: MOUSE, Strain/Sex: C3H/MALE, Route: DERMAL, Dose: 0, 5 MG IN ACETONE 3/WK FOR DURATION OF STUDY (STUDY DURATION: LIFETIME)",inactive; negative
O=[N+]([O-])c1ccc2ccc3c(O)ccc4ccc1c2c43,carcinogen call,"Species: MOUSE, Strain/Sex: B6C3F1/FEMALE, Route: INTRAPERITONEAL, Dose: 0, 7 NMOL (TOTAL DOSE), 1/7, 2/7 AND 4/7 OF THE TOTAL DOSE ADMINISTERED WITHIN 24 HR OF BIRTH AND AT 8 AND 15 D OF AGE",inactive; negative
same,carcinogen call,"Species: MOUSE, Strain/Sex: B6C3F1/MALE, Route: INTRAPERITONEAL, Dose: 0, 7 NMOL (TOTAL DOSE), 1/7, 2/7 AND 4/7 OF THE TOTAL DOSE ADMINISTERED WITHIN 24 HR OF BIRTH AND AT 8 AND 15 D OF AGE",inactive; negative
C[C@]12CC[C@@H]3c4ccc(O)cc4CC[C@H]3[C@@H]1C[C@@H](O)C2=O,carcinogen call,"Species: HAMSTER, Strain/Sex: SYRIAN/MALE, Route: SUBCUTANEOUS IMPLANT, Dose: 0, 20 MG IN PELLETS IMPLANTED EVERY 2.5 MO FOR 9 MO (STUDY DURATION: 9 MO), Tumor Site: Type of Lesion: KIDNEY: TUMOR",active; positive
COc1ccccc1N,carcinogen call,"Species: MOUSE, Strain/Sex: B6C3F1/FEMALE, Route: ORAL, Dose: 0, 2500, 5000 PPM IN DIET FOR 103 WK (STUDY DURATION: 105 WK), Dose: 0, 2500, 5000 PPM IN DIET FOR 103 WK (STUDY DURATION: 105 WK), Tumor Site: Type of Lesion: URINARY BLADDER: TRANSITIONAL CELL CARCINOMA, TRANSITIONAL CELL PAPILLOMA OR CARCINOMA",active; positive
same,carcinogen call,"Species: MOUSE, Strain/Sex: B6C3F1/MALE, Route: ORAL, Dose: 0, 2500, 5000 PPM IN DIET FOR 103 WK (STUDY DURATION: 104-105 WK), Dose: 0, 2500, 5000 PPM IN DIET FOR 103 WK (STUDY DURATION: 104-105 WK), Tumor Site: Type of Lesion: URINARY BLADDER: TRANSITIONAL CELL CARCINOMA, TRANSITIONAL CELL PAPILLOMA OR CARCINOMA",active; positive
same,carcinogen call,"Species: RAT, Strain/Sex: F344/FEMALE, Route: ORAL, Dose: 0, 5000, 10000 PPM IN DIET FOR 83-103 WK (STUDY DURATION: 83-107 WK), Dose: 0, 5000, 10000 PPM IN DIET FOR 83-103 WK (STUDY DURATION: 83-107 WK), Tumor Site: Type of Lesion: URINARY BLADDER: TRANSITIONAL CELL CARCINOMA, TRANSITIONAL CELL PAPILLOMA OR CARCINOMA",active; positive
same,carcinogen call,"Species: RAT, Strain/Sex: F344/MALE, Route: ORAL, Dose: 0, 5000, 10000 PPM IN DIET FOR 88-103 WK (STUDY DURATION: 88-106 WK), Dose: 0, 5000, 10000 PPM IN DIET FOR 88-103 WK (STUDY DURATION: 88-106 WK), Tumor Site: Type of Lesion: KIDNEY OR KIDNEY (PELVIS): TRANSITIONAL CELL CARCINOMA, URINARY BLADDER: TRANSITIONAL CELL CARCINOMA, TRANSITIONAL CELL",active; positive
CCCCNC(=O)NS(=O)(=O)c1ccc(C)cc1,carcinogen call,"Species: MOUSE, Strain/Sex: B6C3F1/FEMALE, Route: ORAL, Dose: 0, 25000, 50000 PPM IN DIET, Dose: 0, 25000, 50000 PPM IN DIET",inactive; negative
same,carcinogen call,"Species: MOUSE, Strain/Sex: B6C3F1/MALE, Route: ORAL, Dose: 0, 25000, 50000 PPM IN DIET, Dose: 0, 25000, 50000 PPM IN DIET",inactive; negative
same,carcinogen call,"Species: RAT, Strain/Sex: F344/FEMALE, Route: ORAL, Dose: 0, 12000, 24000 PPM IN DIET, Dose: 0, 12000, 24000 PPM IN DIET",inactive; negative
same,carcinogen call,"Species: RAT, Strain/Sex: F344/MALE, Route: ORAL, Dose: 0, 12000, 24000 PPM IN DIET, Dose: 0, 12000, 24000 PPM IN DIET",inactive; negative
Cc1cccc2c1cc(C)c1c3c(ccc12)C(O)C(O)C1OC31 (centres undefined),carcinogen call,"Species: MOUSE, Strain/Sex: ICR/FEMALE, Route: INTRAPERITONEAL, Dose: 0, 8 NMOL IN 5 µL DMSO TO PUPS ON D 1/OF LIFE THEN 16 NMOL IN 10 µL ON D 8 AND 3 NMOL IN 20 µL ON D 15 (STUDY DURATION:, Tumor Site: Type of Lesion: LUNG: TUMOR",active; positive
same,carcinogen call,"Species: MOUSE, Strain/Sex: ICR/MALE, Route: INTRAPERITONEAL, Dose: 0, 8 NMOL IN 5 µL DMSO TO PUPS ON D 1/OF LIFE THEN 16 NMOL IN 10 µL ON D 8 AND 3 NMOL IN 20 µL ON D 15 (STUDY DURATION:, Tumor Site: Type of Lesion: LUNG: TUMOR, LIVER: TUMOR",active; positive
FC(F)(F)CCl,carcinogen call,"Species: RAT, Strain/Sex: WISTAR/FEMALE, Route: GAVAGE, Dose: 300 MG/KG IN CORN OIL 5/WK FOR 52 WK, Tumor Site: Type of Lesion: UTERUS: ADENOCARCINOMA",active; positive
same,carcinogen call,"Species: RAT, Strain/Sex: WISTAR/MALE, Route: GAVAGE, Dose: 300 MG/KG IN CORN OIL 5/WK FOR 52 WK, Tumor Site: Type of Lesion: TESTES: INTERSTITIAL CELL TUMOR",active; positive
COc1c(Cl)c(Cl)c([N+](=O)[O-])c(Cl)c1Cl,carcinogen call,"Species: MOUSE, Strain/Sex: B6C3F1/FEMALE, Route: ORAL, Dose: 0, 0.006, 0.012% OF DIET, Dose: 0, 0.006, 0.012% OF DIET",inactive; negative
same,carcinogen call,"Species: MOUSE, Strain/Sex: B6C3F1/MALE, Route: ORAL, Dose: 0, 0.006, 0.012% OF DIET, Dose: 0, 0.006, 0.012% OF DIET",inactive; negative
same,carcinogen call,"Species: RAT, Strain/Sex: F344/FEMALE, Route: ORAL, Dose: 0, 0.006, 0.012% OF DIET, Dose: 0, 0.006, 0.012% OF DIET",inactive; negative
same,carcinogen call,"Species: RAT, Strain/Sex: F344/MALE, Route: ORAL, Dose: 0, 0.006, 0.012% OF DIET, Dose: 0, 0.006, 0.012% OF DIET",inactive; negative
